These results are taken from patent US12110276B2 (Genentech, Inc., priority 2021, dated 2024).

Assay [1] addresses TEAD1 (Homo sapiens (Human), UniProt P28347). Put plainly: TR-FRET lipid pocket probe competition assay (Lipid HTRF), TEAD1.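 Also: His-tagged TEAD1 with biotinylated probe, detected via Europium anti-His and XL665 streptavidin, probe displacement lowers TR-FRET signal, IC50 from four-parameter nonlinear fit.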 The class given is binding. The conditions noted are these: 4 hours pre-incubation; read-out: Lipid HTRF TEAD1 IC50.
Description: (§1) His-tagged TEAD proteins are pre-incubated with TEAD project compounds for 30 minutes or 4 hours at room temperature. Biotinylated lipid pocket probes are then added to the TEAD/Compound mixture and incubated for 60 minutes at room temperature. The lipid pocket probe competes with the test compound for the TEAD lipid pocket until equilibrium is reached. After 60 minutes, Europium labelled anti-His (Perkin Elmer #AD0110) and XL665 labelled streptavidin (CIS Bio 610SAXAC) are added to the TEAD/test compound/lipid pocket mixture and incubated for 30 minutes or 4 hours. […] If a TEAD lipid pocket binder such as binds and displaces the lipid pocket probe, the disruption of the TEAD:probe interaction results in a decrease in TR-FRET signal. The potency of compounds as TEAD lipid pocket binders is determined by IC50 value generated using a non-linear 4 parameter curve fit.
The target of assay [2] is TEAD2 (Homo sapiens (Human), UniProt Q15562).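 Also: TR-FRET competition assay with His-tagged TEAD protein and a biotinylated lipid pocket probe, compound pre-incubated 30 min or 4 h at room temperature, displacement lowers signal.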
Description: His-tagged TEAD proteins are pre-incubated with TEAD project compounds for 30 minutes or 4 hours at room temperature. Biotinylated lipid pocket probes are then added to the TEAD/Compound mixture and incubated for 60 minutes at room temperature. The lipid pocket probe competes with the test compound for the TEAD lipid pocket until equilibrium is reached. After 60 minutes, Europium labelled anti-His (Perkin Elmer #AD0110) and XL665 labelled streptavidin (CIS Bio 610SAXAC) are added to the TEAD/test compound/lipid pocket mixture and incubated for 30 minutes or 4 hours. TR-FRET values are then measured using an EnVision multi-label plate reader (Perkin Elmer Cat #2104-0010A.) If the lipid pocket probe binds to TEAD as expected, a TR-FRET signal results from the proximity of anti-His Eu and XL665. If a TEAD lipid pocket binder such as binds and displaces the lipid pocket probe, the disruption of the TEAD:probe interaction results in a decrease in TR-FRET signal. The potency of compounds as TEAD lipid pocket binders is determined by IC50 value generated using a non-linear 4 parameter curve fit.
For assay [3], the target named is TEAD4 (Homo sapiens (Human), UniProt Q15561). Put plainly: TR-FRET lipid pocket probe competition assay (Lipid HTRF), TEAD4.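 Also: His-tagged TEAD4 with biotinylated lipid-pocket probe, read by Europium anti-His and XL665 streptavidin, where probe displacement lowers the TR-FRET signal, IC50 from a four-parameter fit.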 The conditions noted are these: 4 hours pre-incubation; read-out: Lipid HTRF TEAD4 IC50. The class given is binding. Background: TR-FRET usually uses a lanthanide donor and a delayed reading to cut background.
Description: as §1
Assay [4] has as its target TEAD3 (Homo sapiens (Human), UniProt Q99594). The assay is described as follows: TR-FRET lipid pocket probe competition assay (Lipid HTRF), TEAD3. The format is binding. The conditions noted are these: 4 hours pre-incubation; read-out: Lipid HTRF TEAD3 IC50.

In general, IC50 refers to the concentration that inhibits the measured activity by half.

Sequence of TEAD3 (Q99594 whole entry, species assumed): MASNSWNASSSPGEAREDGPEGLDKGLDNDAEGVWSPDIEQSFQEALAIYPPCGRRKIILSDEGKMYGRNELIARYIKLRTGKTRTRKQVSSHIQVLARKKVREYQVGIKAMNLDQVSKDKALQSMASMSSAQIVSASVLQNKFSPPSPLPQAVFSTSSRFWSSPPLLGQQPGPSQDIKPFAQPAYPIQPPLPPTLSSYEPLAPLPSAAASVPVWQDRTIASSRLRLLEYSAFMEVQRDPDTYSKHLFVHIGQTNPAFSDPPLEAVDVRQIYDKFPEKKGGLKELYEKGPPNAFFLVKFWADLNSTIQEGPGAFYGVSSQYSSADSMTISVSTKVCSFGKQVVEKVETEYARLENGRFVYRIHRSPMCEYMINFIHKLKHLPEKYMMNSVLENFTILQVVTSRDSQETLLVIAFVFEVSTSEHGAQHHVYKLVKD
Sequence of TEAD4 (Q15561 whole entry, species assumed): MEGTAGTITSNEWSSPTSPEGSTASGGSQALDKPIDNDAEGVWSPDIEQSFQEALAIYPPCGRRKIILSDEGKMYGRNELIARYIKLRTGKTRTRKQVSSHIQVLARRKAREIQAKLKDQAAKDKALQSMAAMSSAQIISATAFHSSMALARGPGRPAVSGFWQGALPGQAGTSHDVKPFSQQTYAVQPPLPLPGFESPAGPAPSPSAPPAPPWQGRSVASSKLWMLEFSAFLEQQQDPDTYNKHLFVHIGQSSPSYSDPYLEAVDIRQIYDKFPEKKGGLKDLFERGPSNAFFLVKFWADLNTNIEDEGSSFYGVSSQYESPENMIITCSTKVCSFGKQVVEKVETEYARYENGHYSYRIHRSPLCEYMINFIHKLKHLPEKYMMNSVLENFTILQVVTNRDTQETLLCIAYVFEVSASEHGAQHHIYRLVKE
Sequence of TEAD2 (Q15562 whole entry, species assumed): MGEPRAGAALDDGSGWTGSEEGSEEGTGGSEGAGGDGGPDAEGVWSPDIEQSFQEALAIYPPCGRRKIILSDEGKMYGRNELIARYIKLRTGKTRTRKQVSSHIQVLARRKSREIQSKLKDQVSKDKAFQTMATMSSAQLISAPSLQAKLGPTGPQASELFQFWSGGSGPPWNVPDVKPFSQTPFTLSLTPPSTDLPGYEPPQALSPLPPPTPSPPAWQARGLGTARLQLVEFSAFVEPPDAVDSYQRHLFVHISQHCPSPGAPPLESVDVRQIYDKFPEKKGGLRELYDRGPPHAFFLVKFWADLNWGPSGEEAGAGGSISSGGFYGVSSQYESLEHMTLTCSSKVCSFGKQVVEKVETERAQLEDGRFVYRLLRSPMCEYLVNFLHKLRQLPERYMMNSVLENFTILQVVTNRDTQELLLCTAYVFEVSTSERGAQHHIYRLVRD
Sequence of TEAD1 (P28347 whole entry, species assumed): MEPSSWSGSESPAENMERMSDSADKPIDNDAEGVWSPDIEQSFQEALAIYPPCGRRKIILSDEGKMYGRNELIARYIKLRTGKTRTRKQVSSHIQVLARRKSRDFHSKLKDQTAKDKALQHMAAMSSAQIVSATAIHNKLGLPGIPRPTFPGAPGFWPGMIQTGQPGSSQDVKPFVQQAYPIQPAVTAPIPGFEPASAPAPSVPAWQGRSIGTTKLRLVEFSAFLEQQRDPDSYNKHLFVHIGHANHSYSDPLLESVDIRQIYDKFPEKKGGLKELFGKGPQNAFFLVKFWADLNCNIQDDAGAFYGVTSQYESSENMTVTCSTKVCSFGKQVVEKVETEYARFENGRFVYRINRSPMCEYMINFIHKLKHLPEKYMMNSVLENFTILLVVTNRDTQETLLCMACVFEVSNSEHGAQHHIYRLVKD

Consider `O=C(/C=C\Cl)NCc1nn(-c2ccc(OC(F)(F)F)cc2)c2nccc([C@H](O)CO)c12` [Compound 53, (S,Z)-3-chloro-N-((4-(1,2-dihydroxyethyl)-1-(4-(trifluoromethoxy)phenyl)-1H-pyrazolo[3,4-b]pyridin-3-yl)methyl)acrylamide], for which the IC50 in assay [1] was determined as 0.045 µM; in assay [2], 0.036 µM; in assay [3] it was 0.0035 µM; in assay [4], 50 µM.
Take `C=C(F)C(=O)N1CC(c2nn(-c3ccc(OC(F)(F)F)cc3)c3nccc(-c4cnn(C5COC5)c4)c23)C1` [Compound 175, 2-fluoro-1-(3-(4-(1-(oxetan-3-yl)-1H-pyrazol-4-yl)-1-(4-(trifluoromethoxy)phenyl)-1H-pyrazolo[3,4-b]pyridin-3-yl)azetidin-1-yl)prop-2-en-1-one]: the half-maximal inhibitory concentration (IC50) in assay [1] stood at 0.062 µM; in assay [2] it was 0.42 µM; in assay [3], 0.045 µM; in assay [4], 50 µM.
Taken in the same sequence, the figures for `O=C(/C=C\Cl)NCc1nn(-c2ccc(OC(F)(F)F)cc2)c2nccc(CO)c12` [Compound 99, (Z)-3-Chloro-N-((4-(hydroxymethyl)-1-(4-(trifluoromethoxy)phenyl)-1H-pyrazolo[3,4-b]pyridin-3-yl)methyl)acrylamide] were 0.0033 µM, 0.028 µM, 0.005 µM and 0.087 µM.
In the case of `C=CC(=O)NCc1nn(-c2ccc(OC(F)(F)F)cc2)c2nccc(N3CC(O)C3)c12` [Compound 106, N-((4-(3-hydroxyazetidin-1-yl)-1-(4-(trifluoromethoxy)phenyl)-1H-pyrazolo[3,4-b]pyridin-3-yl)methyl)acrylamide], the IC50 in assay [1] was found to be 0.0155 µM; in assay [2], 0.061 µM; in assay [3] it was 0.00675 µM; in assay [4], 0.935 µM.
Regarding `Cc1ccnc2c1c(C1CN(C(=O)/C=C/CO)C1)nn2-c1ccc(OC(F)(F)F)cc1` [Compound 96, (E)-4-Hydroxy-1-(3-(4-methyl-1-(4-(trifluoromethoxy)phenyl)-1H-pyrazolo[3,4-b]pyridin-3-yl)azetidin-1-yl)but-2-en-1-one], the IC50 in assay [1] worked out at 0.01 µM; in assay [2] it was 0.03 µM; in assay [3], 0.0037 µM; in assay [4], 0.038 µM.
As to `C=CC(=O)NCc1nn(-c2ccc(OC(F)(F)F)cc2)c2ncccc12` [Compound 188, N-((1-(4-(trifluoromethoxy)phenyl)-1H-pyrazolo[3,4-b]pyridin-3-yl)methyl)acrylamide], the IC50 in assay [1] was 0.0072 µM; in assay [2], 0.084 µM; in assay [3], 0.0073 µM; in assay [4] it was 0.15 µM.
Consider `C=CC(=O)NCc1nn(-c2ccc(OC(F)(F)F)cc2)c2nccc(O[C@H]3C[C@H](O)C3)c12` [Compound 67, N-((4-(trans-3-Hydroxycyclobutoxy)-1-(4-(trifluoromethoxy)phenyl)-1H-pyrazolo[3,4-b]pyridin-3-yl)methyl)acrylamide], for which the IC50 in assay [1] is 0.101 µM; in assay [2], 0.365 µM; in assay [3] it was 0.031 µM; in assay [4], 50 µM.
Consider `C=C(C)S(=O)(=O)N1CC(c2nn(-c3ccc(OC(F)(F)F)cc3)c3nccc([C@@H](O)CO)c23)C1` [Compound 160, (R)-1-(3-(1-(prop-1-en-2-ylsulfonyl)azetidin-3-yl)-1-(4-(trifluoromethoxy)phenyl)-1H-pyrazolo[3,4-b]pyridin-4-yl)ethane-1,2-diol], for which the IC50 turned out to be 0.076 µM in assay [1], 0.015 µM in assay [2], 0.043 µM in assay [3] and 1.2 µM in assay [4].
Taken in the same sequence, the figures for `C=CC(=O)NCc1nn(-c2ccc(OC(F)(F)F)cc2)c2nccc(N3CC(N(C)C)C3)c12` [Compound 107, N-((4-(3-(dimethylamino)azetidin-1-yl)-1-(4-(trifluoromethoxy)phenyl)-1H-pyrazolo[3,4-b]pyridin-3-yl)methyl)acrylamide] were 0.28 µM, 0.96 µM, 0.036 µM and 50 µM.
For `C/C=C/C(=O)N1CC(c2nn(-c3ccc(OC(F)(F)F)cc3)c3nccc(CO)c23)C1` [Compound 120, (E)-1-(3-(4-(Hydroxymethyl)-1-(4-(trifluoromethoxy)phenyl)-1H-pyrazolo[3,4-b]pyridin-3-yl)azetidin-1-yl)but-2-en-1-one], the concentration for half-maximal inhibition (IC50) in assay [1] was 0.027 µM; in assay [2], 0.16 µM; in assay [3], 0.055 µM; in assay [4] it was 0.27 µM.
Turning to `O=C(/C=C/Cl)N1CC(c2nn(-c3ccc(OC(F)(F)F)cc3)c3nccc(CO)c23)C1` [Compound 102, (E)-3-Chloro-1-(3-(4-(hydroxymethyl)-1-(4-(trifluoromethoxy)phenyl)-1H-pyrazolo[3,4-b]pyridin-3-yl)azetidin-1-yl)prop-2-en-1-one], the IC50 in assay [1] is 0.01 µM; in assay [2], 0.0035 µM; in assay [3] it was 0.0033 µM; in assay [4], 0.0088 µM.
On to `C=CC(=O)N1CC(c2nn(-c3ccc(OC(F)(F)F)cc3)c3nccc([C@H](O)CO)c23)C1` [Compound 113, (S)-1-(3-(4-(1,2-Dihydroxyethyl)-1-(4-(trifluoromethoxy)phenyl)-1H-pyrazolo[3,4-b]pyridin-3-yl)azetidin-1-yl)prop-2-en-1-one], for which the IC50 in assay [1] was found to be 0.019 µM; in assay [2] it was 0.0065 µM; in assay [3] it was 0.0045 µM; in assay [4] it was 0.02 µM.
Turning to `C=CC(=O)NCc1nn(-c2ccc(OC(F)(F)F)cc2)c2nccc(N3CC(N)C3)c12` [Compound 92, N-((4-(3-aminoazetidin-1-yl)-1-(4-(trifluoromethoxy)phenyl)-1H-pyrazolo[3,4-b]pyridin-3-yl)methyl)acrylamide], the IC50 in assay [1] is 0.11 µM; in assay [2], 0.78 µM; in assay [3], 0.052 µM; in assay [4], 13 µM.
Consider `C=CC(=O)NCc1nn(-c2ccc(OC(F)(F)F)cc2)c2cccnc12` [Compound 187, N-((1-(4-(trifluoromethoxy)phenyl)-1H-pyrazolo[4,3-b]pyridin-3-yl)methyl)acrylamide], for which the IC50 in assay [1] stood at 0.091 µM; in assay [2] it was 1.2 µM; in assay [3] it was 0.055 µM; in assay [4] it was 0.95 µM.
For `C#Cc1ccnc2c1c(C1CN(C(=O)C=C)C1)nn2-c1ccc(OC(F)(F)F)cc1` [Compound 48, 1-(3-(4-Ethynyl-1-(4-(trifluoromethoxy)phenyl)-1H-pyrazolo[3,4-b]pyridin-3-yl)azetidin-1-yl)prop-2-en-1-one], the IC50 in assay [1] amounted to 0.0035 µM; in assay [2], 0.0023 µM; in assay [3], 0.00088 µM; in assay [4] it was 0.0048 µM.
For `COC/C=C/C(=O)N1CC(c2nn(-c3ccc(OC(F)(F)F)cc3)c3nccc(CO)c23)C1` [Compound 40, (E)-1-(3-(4-(Hydroxymethyl)-1-(4-(trifluoromethoxy)phenyl)-1H-pyrazolo[3,4-b]pyridin-3-yl)azetidin-1-yl)-4-methoxybut-2-en-1-one], the IC50 in assay [1] was 0.016 µM; in assay [2], 0.048 µM; in assay [3], 0.013 µM; in assay [4], 0.066 µM.
`O=C(/C=C/CO)N1CC(c2nn(-c3ccc(OC(F)(F)F)cc3)c3nccc(N4CC(O)C4)c23)C1` [Compound 70, (E)-4-Hydroxy-1-(3-(4-(3-hydroxyazetidin-1-yl)-1-(4-(trifluoromethoxy)phenyl)-1H-pyrazolo[3,4-b]pyridin-3-yl)azetidin-1-yl)but-2-en-1-one]: the IC50 in assay [1] stood at 0.017 µM; in assay [2], 0.037 µM; in assay [3], 0.0036 µM; in assay [4] it was 0.14 µM.
As to `C[C@@H](O)/C=C/C(=O)N1CC(c2nn(-c3ccc(OC(F)(F)F)cc3)c3nccc(CO)c23)C1` [Compound 66, (R,E)-4-Hydroxy-1-(3-(4-(hydroxymethyl)-1-(4-(trifluoromethoxy)phenyl)-1H-pyrazolo[3,4-b]pyridin-3-yl)azetidin-1-yl)pent-2-en-1-one], the IC50 in assay [1] is 0.044 µM; in assay [2], 0.18 µM; in assay [3], 0.033 µM; in assay [4], 0.34 µM.
Regarding `C=CC(=O)NCc1nn(-c2ccc(OC(F)(F)F)cc2)c2nccc(N3CC(C#N)C3)c12` [Compound 52, N-((4-(3-Cyanoazetidin-1-yl)-1-(4-(trifluoromethoxy)phenyl)-1H-pyrazolo[3,4-b]pyridin-3-yl)methyl)acrylamide], the IC50 in assay [1] amounted to 0.014 µM; in assay [2], 0.045 µM; in assay [3], 0.0034 µM; in assay [4], 3.5 µM.
Take `O=C(/C=C/CF)N1CC(c2nn(-c3ccc(OC(F)(F)F)cc3)c3ccnc(N4CC(O)C4)c23)C1` [Compound 137, (E)-4-fluoro-1-(3-(4-(3-hydroxyazetidin-1-yl)-1-(4-(trifluoromethoxy)phenyl)-1H-pyrazolo[4,3-c]pyridin-3-yl)azetidin-1-yl)but-2-en-1-one]: the IC50 in assay [1] is 0.072 µM; in assay [2] it was 0.36 µM; in assay [3], 0.026 µM; in assay [4] it was 5.2 µM.
The corresponding values for `C=CC(=O)NCc1nn(-c2ccc(OC(F)(F)F)cc2)c2nccc([C@H](C)O)c12` [Compound 63, (S)-N-((4-(1-hydroxyethyl)-1-(4-(trifluoromethoxy)phenyl)-1H-pyrazolo[3,4-b]pyridin-3-yl)methyl)acrylamide] are 0.135 µM, 0.123 µM, 0.0785 µM and 10.5 µM.
Turning to `C=C(F)C(=O)N1CC(c2nn(-c3ccc(OC(F)(F)F)cc3)c3nccc(-c4cnn(CCN(C)C)c4)c23)C1` [Compound 45, 1-(3-(4-(1-(2-(Dimethylamino)ethyl)-1H-pyrazol-4-yl)-1-(4-(trifluoromethoxy)phenyl)-1H-pyrazolo[3,4-b]pyridin-3-yl)azetidin-1-yl)-2-fluoroprop-2-en-1-one], the IC50 worked out at 0.25 µM in assay [1], 1.5 µM in assay [2], 0.34 µM in assay [3] and 50 µM in assay [4].
